The target of one experiment is Mouse ERK2 protein (Mus musculus (Mouse), UniProt P63085). Nature of the experiment: Coupled MEK1/ERK2 IMAP assay or Active ERK2 IMAP assay. The format is biochemical.
In a further experiment the target is ERK protein (Mus musculus, UniProt P63085). As to the kind of experiment: TdF (Temperature Dependence Fluorescence, thermal shift) assay for ERK. Type of experiment: binding. The note with it: Table 2; 3 μM ERK protein. An excerpt:
The SAR (Structure Activity Relationship) for ERK ligands covered by this invention was interrogated using the TdF (Temperature Dependence Fluorescence) assay or best known as thermal shift assay. (M. W. Pantoliano, et al., “High-density miniaturized thermal shift assays as a general strategy for drug discovery,” J. Biomol. Screen 6 (2001) 429-440) The TdF assay was mainly conducted in the 96-well based CHROMO-4 real time fluorescence plate reader (BioRad). The Sypro Orange (Sigma-Aldrich), environmentally sensitive fluorescence dye, was used to monitor the protein folding-unfolding transition. Protein-ligand binding was gauged by the change (or shift) in the unfolding transition temperature (ΔTm) acquired at protein alone with respect to protein in the presence of ligand of interest.
Compound of interest was first prepared in DMSO stock (typical concentration: 10 mM). […] Final percentage of DMSO resided in the sample was 2%. The sample plate was heated from 30° C. to 90° C. with thermal ramping rate of 1° C./min. The fluorescence signals were acquired with excitation and emission wavelengths centered at 490 and 560 nm respectively. The instrument thermal stability was ±0.2° C. The melting temperatures (Tm) for ERK protein under aforementioned conditions occurred at […] and 64.8±0.2° C. respectively.
The derivation of TdF-based ligand binding affinity constant (Kd) followed closely those previously formulated by Brandts and Lin. (J. F. Brandts, L.-N. Lin, “Study of strong to ultratight protein interactions using differential scanning calorimetry,” Biochemistry 29 (1990) 6927-6940). In brief, the binding constant of the ligand at the Tm is expressed as below:
[formula] where T0 is the midpoint of unfolding for unliganded protein and Tm is the midpoint of unfolding in presence of ligand. [LTm] is free ligand at Tm. The ΔHu and ΔCpu are the enthalpy of unfolding and heat capacity change of unfolding for the protein respectively. Following algorithm derived by Winsor and coworker, the T0, ΔHu and ΔCpu can be determined separately from nonlinear regression fitting the protein alone melting curve:
[formula] where F(T) is the observed fluorescence intensity at any temperature T, Yn, and Yu are the predicted fluorescence intensities for fully folded and unfolded protein, respectively; mn and mu are slope correction for changes in Yn and Yu with respect to changes in temperature (analogously replace T0 with Tm in the above equation for liganded protein to yield Tm). (Mayhood, T. W., Windsor, W. T., “Ligand binding affinity determined by temperature-dependent circular dichroism: Cyclin-dependent kinase 2 inhibitors,” Analytical Biochemistry 345 (2005) 187-197).
[formula] where ΔHL (T) is the van't Hoff enthalpy of ligand binding at temperature T and ΔCpL is the heat capacity upon ligand binding. For simplicity, the ΔCpL and ΔHL (T) were set to zero and -7 kcal/mol respectively. […]

Where [1] appears, read: Table 1, class symbols, 30 μM ATP.

For orientation: IC50 means the point on the concentration scale where inhibition reaches its midpoint. The low end stands for greater potency in that assay, the high end for weaker potency in that assay. Usually Kd stands for the equilibrium constant for the complex coming apart.

Chain of Mouse ERK2 protein (P63085 whole entry): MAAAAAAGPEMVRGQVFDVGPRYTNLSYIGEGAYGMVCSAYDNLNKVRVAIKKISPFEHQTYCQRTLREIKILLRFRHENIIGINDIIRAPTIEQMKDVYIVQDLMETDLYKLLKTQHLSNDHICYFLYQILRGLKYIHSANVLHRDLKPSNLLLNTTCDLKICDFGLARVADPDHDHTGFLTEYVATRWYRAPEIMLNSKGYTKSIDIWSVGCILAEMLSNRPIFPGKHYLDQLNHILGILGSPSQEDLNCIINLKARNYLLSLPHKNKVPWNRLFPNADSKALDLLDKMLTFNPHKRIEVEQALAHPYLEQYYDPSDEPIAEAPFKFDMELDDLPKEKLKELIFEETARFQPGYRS
Chain of ERK protein (P63085 2-358 limits assumed): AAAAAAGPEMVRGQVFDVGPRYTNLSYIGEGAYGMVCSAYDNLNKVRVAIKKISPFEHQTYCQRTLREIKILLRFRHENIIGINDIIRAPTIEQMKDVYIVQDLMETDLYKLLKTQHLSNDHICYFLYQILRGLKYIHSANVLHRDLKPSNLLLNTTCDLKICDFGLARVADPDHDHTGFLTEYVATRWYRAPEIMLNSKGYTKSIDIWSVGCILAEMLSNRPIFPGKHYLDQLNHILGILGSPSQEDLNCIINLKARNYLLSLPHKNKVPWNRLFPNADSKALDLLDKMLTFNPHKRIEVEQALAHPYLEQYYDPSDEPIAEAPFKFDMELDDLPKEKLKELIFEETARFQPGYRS

As for `Cc1ccccc1[C@@H]1CN(C)C[C@H]1NC(=O)N1CCc2[nH]nc(-c3ccncc3)c2C1` [Compound 46, 1,4,6,7-tetrahydro-N-[1-methyl-4(R)-(2-methylphenyl)-3(S)-pyrrolidinyl]-3-(4-pyridinyl)-5H-pyrazolo[4,3-c]pyridine-5-carboxamide], the IC50 at Mouse ERK2 protein (Table 2, 30 μM ATP) turned out to be 0.89 nM. Besides, at ERK protein, the Kd was 0.7 nM.
As to `O=C(N[C@@H]1CCCN(Cc2ccccc2F)C1)N1CCc2[nH]nc(-c3ccncc3)c2C1` [Compound 48, N-[1-[(2-fluorophenyl)methyl]-3(R)-piperidinyl]-1,4,6,7-tetrahydro-3-(4-pyridinyl)-5H-pyrazolo[4,3-c]pyridine-5-carboxamide], the IC50 on Mouse ERK2 protein (Table 2, 30 μM ATP) was found to be 0.65 nM. Besides, the dissociation constant (Kd) at ERK protein turned out to be 0.37 nM.
As for `COc1cccc(F)c1CN1CCC[C@@H](NC(=O)N2CCc3[nH]nc(-c4ccncc4)c3C2)C1` [Compound 53, N-[1-[(2-fluoro-6-methoxyphenyl)methyl]-3(R)-piperidinyl]-1,4,6,7-tetrahydro-3-(4-pyridinyl)-5H-pyrazolo[4,3-c]pyridine-5-carboxamide], the IC50 at Mouse ERK2 protein (setting [1]) was under 20 nM; at Mouse ERK2 protein (Table 2, 30 μM ATP), 3.8 nM. For the same compound, the equilibrium dissociation constant (Kd) on ERK protein came to 0.15 nM.
On to `O=C(N[C@@H]1CCCN(Cc2c(F)cccc2F)C1)N1CCc2[nH]nc(-c3ccncc3)c2C1` [Compound 54, N-[1-[(2,6-difluorophenyl)methyl]-3(R)-piperidinyl]-1,4,6,7-tetrahydro-3-(4-pyridinyl)-5H-pyrazolo[4,3-c]pyridine-5-carboxamide], for which half-maximal inhibition against Mouse ERK2 protein (Table 2, 30 μM ATP) (IC50) was put at 1.97 nM. Moreover, the Kd at ERK protein came to 0.51 nM.
In the same order, the values of `O=C(N[C@@H]1CCCN(Cc2csc3ccccc23)C1)N1CCc2[nH]nc(-c3ccncc3)c2C1` [Compound 57, N-[1-(benzo[b]thien-3-ylmethyl)-3(R)-piperidinyl]-1,4,6,7-tetrahydro-3-(4-pyridinyl)-5H-pyrazolo[4,3-c]pyridine-5-carboxamide] are 0.5 nM and 0.3 nM.
`Cc1ccsc1CN1CCC[C@@H](NC(=O)N2CCc3[nH]nc(-c4ccncc4)c3C2)C1` [Compound 58, 1,4,6,7-tetrahydro-N-[1-[(3-methyl-2-thienyl)methyl]-3(R)-piperidinyl]-3-(4-pyridinyl)-5H-pyrazolo[4,3-c]pyridine-5-carboxamide] displayed an IC50 against Mouse ERK2 protein (Table 2, 30 μM ATP) of 1.98 nM. On ERK protein, the Kd is 0.25 nM.
The corresponding values for `Cc1ccc(CN2CCC[C@@H](NC(=O)N3CCc4[nH]nc(-c5ccncc5)c4C3)C2)s1` [Compound 59, 1,4,6,7-tetrahydro-N-[1-[(5-methyl-2-thienyl)methyl]-3(R)-piperidinyl]-3-(4-pyridinyl)-5H-pyrazolo[4,3-c]pyridine-5-carboxamide] are 1.78 nM and 1.51 nM.
For `Cn1cc(CN2CCC[C@@H](NC(=O)N3CCc4[nH]nc(-c5ccncc5)c4C3)C2)c2ccccc21` [Compound 60, 1,4,6,7-tetrahydro-N-[1-[(1-methyl-1H-indol-3-yl)methyl]-3(R)-piperidinyl]-3-(4-pyridinyl)-5H-pyrazolo[4,3-c]pyndine-5-carboxamide], half-maximal inhibition on Mouse ERK2 protein (Table 2, 30 μM ATP) (IC50) was put at 1.24 nM. Also, the dissociation constant (Kd) at ERK protein was 1.12 nM.
The corresponding values for `Cn1c(CN2CCC[C@@H](NC(=O)N3CCc4[nH]nc(-c5ccncc5)c4C3)C2)cc2ccccc21` [Compound 61, 1,4,6,7-tetrahydro-N-[1-[(1-methyl-1H-indol-2-yl)methyl]-3(R)-piperidinyl]-3-(4-pyridinyl)-5H-pyrazolo[4,3-c]pyridine-5-carboxamide] are 0.3 nM and 0.47 nM.
For the compound `CC(=O)n1cc(CN2CCC[C@@H](NC(=O)N3CCc4[nH]nc(-c5ccncc5)c4C3)C2)c2ccccc21` [Compound 62, N-[1-[(1-acetyl-1H-indol-3-yl)methyl]-3(R)-piperidinyl]-1,4,6,7-tetrahydro-3-(4-pyridinyl)-5H-pyrazolo[4,3-c]pyridine-5-carboxamide], the IC50 against Mouse ERK2 protein (Table 2, 30 μM ATP) was determined as 2.01 nM. Moreover, the Kd at ERK protein came to 2.1 nM.
Take `O=C(N[C@@H]1CCCN(Cc2ccccc2Cl)C1)N1CCc2[nH]nc(-c3ccncc3)c2C1` [Compound 69, N-[1-[(2-chlorophenyl)-methyl]-3(R)-piperidinyl]-1,4,6,7-tetrahydro-3-(4-pyridinyl)-5H-pyrazolo[4,3-c]pyridine-5-carboxamide]: the midpoint of inhibition against Mouse ERK2 protein (Table 2, 30 μM ATP), the IC50, lay at 2.4 nM. For the same compound, the Kd on ERK protein is 0.31 nM.
Regarding `Cc1cccc(C)c1CN1CCC[C@@H](NC(=O)N2CCc3[nH]nc(-c4ccncc4)c3C2)C1` [Compound 71, N-[1-[(2,6-dimethylphenyl)-methyl]-3(R)-piperidinyl]-1,4,6,7-tetrahydro-3-(4-pyridinyl)-5H-pyrazolo[4,3-c]pyridine-5-carboxamide], the 50% inhibitory concentration (IC50) at Mouse ERK2 protein (Table 2, 30 μM ATP) was determined as 2.07 nM. On ERK protein, the Kd came out at 0.15 nM.
For `Cc1noc(-c2ccccc2)c1CN1CCC[C@@H](NC(=O)N2CCc3[nH]nc(-c4ccncc4)c3C2)C1` [Compound 75, 1,4,6,7-tetrahydro-N-[1-[(3-methyl-5-phenyl-4-isoxazolyl)methyl]-3(R)-piperidinyl]-3-(4-pyridinyl)-5H-pyrazolo[4,3-c]pyridine-5-carboxamide], the dissociation constant (Kd) at ERK protein came to 1.36 nM.
`Cc1onc(-c2ccccc2)c1CN1CCC[C@@H](NC(=O)N2CCc3[nH]nc(-c4ccncc4)c3C2)C1` [Compound 76, 1,4,6,7-tetrahydro-N-[1-[(5-methyl-3-phenyl-4-isoxazolyl)methyl]-3(R)-piperidinyl]-3-(4-pyridinyl)-5H-pyrazolo[4,3-c]pyridine-5-carboxamide]: the dissociation constant (Kd) at ERK protein was determined as 1.55 nM.
For the compound `Cc1cc(-c2n[nH]c3c2CN(C(=O)NC2CCCN(Cc4c(C)cccc4C)C2)CC3)ccn1` (stereo not drawn) [Compound 84, N-[1-[(2,6-dimethylphenyl)-methyl]-3-piperidinyl]-1,4,6,7-tetrahydro-3-(2-methyl-4-pyridinyl)-5H-pyrazolo[4,3-c]pyridine-5-carboxamide], the IC50 against Mouse ERK2 protein (Table 2, 30 μM ATP) was 6.3 nM. Besides, on ERK protein, the Kd amounted to 0.13 nM.
As to `Cc1cc(-c2n[nH]c3c2CN(C(=O)N[C@@H]2CCCN(Cc4cccc5ccccc45)C2)CC3)ccn1` [Compound 100, 1,4,6,7-tetrahydro-3-(2-methyl-4-pyridinyl)-N-[1-(1-naphthalenylmethyl)-3(R)-piperidinyl]-5H-pyrazolo[4,3-c]pyridine-5-carboxamide], the IC50 against Mouse ERK2 protein (Table 2, 30 μM ATP) stood at 3.7 nM. For the same compound, at ERK protein, the equilibrium dissociation constant (Kd) was 0.4 nM.
The corresponding values for `O=C(N[C@@H]1CCCN(Cc2csc3ccccc23)C1)N1CCc2[nH]nc(-c3ccc4nccn4c3)c2C1` [Compound 109, N-[1-(benzo[b]thien-3-ylmethyl)-3(R)-piperidinyl]-1,4,6,7-tetrahydro-3-(imidazo[1,2-a]pyridin-6-yl)-5H-pyrazolo[4,3-c]pyridine-5-carboxamide] are 3 nM and 0.14 nM.
In the same order, the values of `Cc1cccc(C)c1CN1CCC[C@@H](NC(=O)N2CCc3[nH]nc(-c4ccc5nccn5c4)c3C2)C1` [Compound 110] are 5.3 nM and 0.03 nM.
In the same order, the values of `O=C(N[C@@H]1CCCN(Cc2cccc3ccccc23)C1)N1CCc2[nH]nc(-c3ccc4nccn4c3)c2C1` [Compound 112, 1,4,6,7-tetrahydro-3-imidazo[1,2-a]pyridin-6-yl-N-[1-(1-naphthalenylmethyl)-3(R)-piperidinyl]-5H-pyrazolo[4,3-c]pyridine-5-carboxamide] are 3.1 nM and 0.12 nM.
Regarding `Cc1nc2cc(-c3n[nH]c4c3CN(C(=O)N[C@@H]3CCCN(Cc5ccccc5)C3)CC4)ccc2s1` [Compound 190, 1,4,6,7-tetrahydro-3-(2-methyl-5-benzothiazolyl)-N-[1-(phenylmethyl)-3(R)-piperidinyl]-5H-pyrazolo[4,3-c]pyridine-5-carboxamide], on Mouse ERK2 protein (setting [1]), the 50% inhibitory concentration (IC50) lay in the range of 101 to 1000 nM.
Compound `Cc1nc2ccc(-c3n[nH]c4c3CN(C(=O)N[C@@H]3CCCN(Cc5ccccc5F)C3)CC4)cc2o1` [Compound 191, N-[1-[(2-fluorophenyl)-methyl]-3(R)-piperidinyl]-1,4,6,7-tetrahydro-3-(2-methyl-6-benzoxazolyl)-5H-pyrazolo[4,3-c]pyridine-5-carboxamide] showed a half-inhibitory concentration (IC50) against Mouse ERK2 protein (setting [1]) of under 20 nM.

The values above are taken from patent US9242981B2, “Fused pyrazole derivatives as novel ERK inhibitors” (Merck Sharp & Dohme Corp., priority 2010, dated 2016).
